Bridge positions count the residues as written; N and C are the ends. Square brackets hold non-standard residues; d marks the D form. Ends that are not written are not given here. S5 = C=CCCC[C@](C)(N)C(=O)O; Nle = CCCC[C@H](N)C(=O)O
Tests used:
[1] = test system: OCI-AML3 cells; assay: LDH release assay of OCI-AML3 cells; assay type: cell-based, human; details: 90 minutes; for cancer cell lysis by LDH release, compared with parent Mag(i+4)15: 10 and 25 μg/mL, FIG. 6, FIG. 7; for susceptibility of OCI-AML3 cells to iStOPs (LDH release): FIG. 19
Method: (§1) LDH release assay: To assess the release of lactate dehydrogenase (LDH) upon treatment with a structurally-stabilized peptide described herein, an LDH release assay can be used. Cultured cells, including, e.g., cancer cells and HUVEC cells, are plated in 96-well format (2×10^4 cells per well; including overnight incubation for adherent cells) and then treated with serial dilutions of structurally-stabilized peptides in a final volume in a final volume of 100 μL and incubated at 37° C. for the indicated time period (e.g., 90 minutes). The plates are spun down at 1500 rpm for 5 minutes at 4° C., and 80 μL of cell culture media is transferred to a clear plate (Corning), incubated with 80 μL of LDH reagent (Roche) for 15 minutes while shaking, and absorbance is measured at 490 nm on a microplate reader (SpectraMax M5 Microplate Reader, Molecular Devices). LDH release assays, as tailored to specific cancer cell types (OCI-AML3 cells and primary human pediatric B-ALL cells), are exemplified below.
(§2) LDH release assay of OCI-AML3 cells: OCI-AML3 cells are seeded in 96-well plates (2×10^4 cells per well) in RPMI medium containing 5% FBS and treated with structurally-stabilized peptides for 90 minutes. LDH release is quantified by incubating centrifuged (e.g., at 1500 rpm) cell culture medium 1:1 with LDH reagent (Roche), followed by absorbance measurement 490 nm on a microplate reader (Spectramax M5). Percent LDH release was normalized to 1% Triton.
(§3) LDH release assay: Cultured cells, including cancer cells and HUVEC cells, were plated in 96-well format (2×10^4 cells per well; including overnight incubation for adherent cells) and then treated with serial dilutions of Mag(i+4) peptides in a final volume in a final volume of […] and incubated at 37° C. for the indicated time period. The plates were spun down at 1500 rpm for 5 min at 4° C., and 80 μL of cell culture media was transferred to a clear plate (Corning), incubated with 80 μL of LDH reagent (Roche) for 15 min while shaking, and absorbance measured at 490 nm on a microplate reader (SpectraMax M5 Microplate Reader, Molecular Devices). LDH release assays, as tailored to specific cancer cell types, are exemplified below.
as §2, with “were” for “are”, “with” for “with structurally-stabilized”, “peptides having the indicated amino acid sequences” for “peptides”, “was” for “is”, “centrifuged” for “centrifuged (e.g., at 1500 rpm)”, “Triton. Data was pooled from 2 technical replicates.” for “Triton.”

[2] = test system: U937 cells; assay: LDH release assay of U937 cells; assay type: cell-based; details: 10 and 25 μg/mL, 90 minutes, FIG. 6, FIG. 7
Method: as §1, §3

Substance | cancer cell lysis by LDH release, compared with parent Mag(i+4)15 [1] | cancer cell lysis by LDH release, compared with parent Mag(i+4)15 [2] | susceptibility of OCI-AML3 cells to iStOPs (LDH release) [1]
GIEKFLHSAKKFGKAX1VGEX2BNS (GIEKFLHSAKKFGKA[S5]VGE[S5][Nle]NS; staple 16-20) [Mag(i+4)15 (G3E)] | retained potent membrane lysis | retained potent membrane lysis | 
GIGKFLESAKKFGKAX1VGEX2BNS (GIGKFLESAKKFGKA[S5]VGE[S5][Nle]NS; staple 16-20) [Mag(i+4)15 (H7E)] | retained potent membrane lysis | retained potent membrane lysis | especially potent and selective activity
GIGKFLHEAKKFGKAX1VGEX2BNS (GIGKFLHEAKKFGKA[S5]VGE[S5][Nle]NS; staple 16-20) [Mag(i+4)15 (S8E)] | retained potent membrane lysis | retained potent membrane lysis | 
GIGKFLHKAKKFGKAX1VGEX2BNS (GIGKFLHKAKKFGKA[S5]VGE[S5][Nle]NS; staple 16-20) [Mag(i+4)15 (S8K)] | retain substantial, if not all, oncolytic activity | retain substantial, if not all, oncolytic activity | 
GIGKFLHSAKKFGKAX1VEEX2BNS (GIGKFLHSAKKFGKA[S5]VEE[S5][Nle]NS; staple 16-20) [Mag(i+4)15 (G18E)] | retained potent membrane lysis | retained potent membrane lysis | especially potent and selective activity
GIGKFLHSAKKFGKAX1VGEX2BES (GIGKFLHSAKKFGKA[S5]VGE[S5][Nle]ES; staple 16-20) [Mag(i+4)15 (N22E)] | retained potent membrane lysis | retained potent membrane lysis | especially potent and selective activity
GIGKFLHSAKKFGKAX1VGEX2BKS (GIGKFLHSAKKFGKA[S5]VGE[S5][Nle]KS; staple 16-20) [Mag(i+4)15 (N22K)] | retain substantial, if not all, oncolytic activity | retain substantial, if not all, oncolytic activity | 
GIGKFLHSAKKFGKAX1VGEX2BNE (GIGKFLHSAKKFGKA[S5]VGE[S5][Nle]NE; staple 16-20) [Mag(i+4)15 (S23E)] | retained substantial or all cancer cell killing activity | retained substantial or all cancer cell killing activity | especially potent and selective activity
GIGKFLHSAKKFGKAX1VGEX2KNS (GIGKFLHSAKKFGKA[S5]VGE[S5]KNS; staple 16-20) [Mag(i+4)15 (M21K)] | retain substantial, if not all, oncolytic activity | retain substantial, if not all, oncolytic activity | 
GIGKFLHSAKKFGKAX1VGKX2BNS (GIGKFLHSAKKFGKA[S5]VGK[S5][Nle]NS; staple 16-20) [Mag(i+4)15 (E19K)] | retain substantial, if not all, oncolytic activity | retain substantial, if not all, oncolytic activity | 
GIGKFLHSAKKFGKAX1VKEX2BNS (GIGKFLHSAKKFGKA[S5]VKE[S5][Nle]NS; staple 16-20) [Mag(i+4)15 (G18K)] | retain substantial, if not all, oncolytic activity | retain substantial, if not all, oncolytic activity | 
GIGKFLHSAKKFGKEX1VGEX2BNS (GIGKFLHSAKKFGKE[S5]VGE[S5][Nle]NS; staple 16-20) [Mag(i+4)15 (A15E)] | retained substantial or all cancer cell killing activity | retained substantial or all cancer cell killing activity | especially potent and selective activity
GIGKFLHSAKKFGKKX1VGEX2BNS (GIGKFLHSAKKFGKK[S5]VGE[S5][Nle]NS; staple 16-20) [Mag(i+4)15 (A15K)] | retain substantial, if not all, oncolytic activity | retain substantial, if not all, oncolytic activity | 
GIGKFLKSAKKFGKAX1VGEX2BNS (GIGKFLKSAKKFGKA[S5]VGE[S5][Nle]NS; staple 16-20) [Mag(i+4)15 (H7K)] | retain substantial, if not all, oncolytic activity | retain substantial, if not all, oncolytic activity | 
GIKKFLHSAKKFGKAX1VGEX2BNS (GIKKFLHSAKKFGKA[S5]VGE[S5][Nle]NS; staple 16-20) [Mag(i+4)15 (G3K)] | retain substantial, if not all, oncolytic activity | retain substantial, if not all, oncolytic activity | 
iStOP 11: integrated StOP of Magainin II combining staples and point mutation(s); sequence only in FIG. 17B ([S5]IGK[S5]LHSKKKFGKA[S5]VGE[S5][Nle]NS; staple 1-5, 16-20) |  |  | especially potent and selective activity

Reference: patent US20230116760A1, “STRUCTURALLY-STABILIZED ONCOLYTIC PEPTIDES AND USES THEREOF” (Dana-Farber Cancer Institute, Inc., priority 2019, published 2023)
